In patent US20210120812A1, “FRESHNESS-RETENTIVE FILM” (MITSUI CHEMICALS TOHCELLO, INC., priority 2013, published 2021):

Tested on: Escherichia coli (E. coli)
Experiment: Antibacterial test according to JIS Z2801 using E. coli (film surface not wiped with alcohol)
Assay type: cell-based
Conditions: judgement in the text
Procedure: For example, in an antibacterial test according to JIS Z2801, a predetermined amount of Escherichia coli (E. coli) or the like is added to a 1/500 nutrient broth. The nutrient broth is dropped onto the surface of the film of a 4 cm square, and is covered with a polyethylene film. The sample is placed at 35° C. After 24 hours, the surface of the freshness-retentive film is washed to recover the nutrient broth. The number of bacterial cells is measured with a nutrient agar. In this test method, alkyldiethanolamine should be diffused in the nutrient broth (solution) in a concentration of 30 ppm or more.
An antibacterial test was performed using Escherichia coli (E. coli) according to JIS Z2801. To keep the state of the surface of the freshness-retentive film, the surface thereof was not wiped with alcohol.
Predetermined amounts of Escherichia coli (E. coli), Staphylococcus aureus, Salmonella, and Vibrio parahaemolyticus (broth (0.4 cc) used in a JIS test) were added to a 1/500 nutrient broth. The nutrient broth was dropped onto the surface of a freshness-retentive film of a 4 cm square, and was covered with a polyethylene film. The film was placed at 35° C., and after 24 hours, the surface of the freshness-retentive film was washed. The washing liquid containing the nutrient broth was recovered, and was cultured on a nutrient agar. The number of colonies was counted.
Since the number of bacterial cells is difficult to count under a microscope, the number of colonies was visually counted. The number of colonies per gram (g) was defined as the number of living bacterial cells CFU (colony forming unit) (unit: [colonies/g]). A sample sandwiched between two polyethylene films was used as a control (Control) for comparison. In Tables, the averages at n=1 to 3 are also shown. If a fluctuation in the measured values is 10 times or more, the average is not calculated according to the JIS specification.
An antibacterial test was performed in the same manner as in Experiment 1.
An antibacterial test was performed in the same manner as in Experiment 1. […]

Row | Molecule | antibacterial characteristics against E. coli (in words)
1 | CCCCCCCCCCCCCCCCCC(=O)OCC(O)CO (stereo not drawn) [glycerol monostearate] | inhibits the antibacterial activity of stearyldiethanolamine
2 | CCCCCCCCCCCCCCCCCCN(CCO)CCO [stearyldiethanolamine] | significantly superior to those of stearyldiethanolamine monostearate
3 | diglycerol monopalmitate | does not inhibit the antibacterial activity of stearyldiethanolamine
